Consider six compounds from patent publication US20130309187A1, “SKIN-WHITENING AGENT CONTAINING 3-HYDROXY-2-PYRONE” (NICHIREI BIOSCIENCES INC., priority 2011, published 2013).

Structures are written as SMILES.

Data set [1] has as its system B16 mouse melanoma 4A5 cells. Kind of data set: Inhibition of melanin production in B16 mouse melanoma 4A5 cells. Format: cell-based. The conditions noted are these: for Melanin level: 5 days culture with sample, relative to control designated as 100. On the procedure:
(§1) B16 mouse melanoma 4A5 cells (RIKEN) were seeded at 5.0 x 10^4 cells/well on a 6-well plate and cultured in Dulbecco's modified Eagle's medium (DMEM) supplemented with 10% FBS at 37° C. in the presence of 5% CO2. The medium was exchanged with fresh medium supplemented with the sample on the following day, and culture was conducted in the medium supplemented with the sample for an additional 5 days. The medium was removed 6 days after the initiation of culture, and the cells were collected by using trypsin. The collected cells were suspended in 1N sodium hydroxide, and melanin was extracted via heating. The absorbance of the melanin extract was measured at 405 nm, and the melanin level was quantified with the calibration curve of the melanin reagent (Sigma). In addition, the amount of proteins in the collected cells was determined using the DC Protein Assay KIT (BIO-RAD) and used as the indicator for the viable cell count.
as §1, with “5.0×10^4” for “5.0 x 10^4”

Data set [2] concerns tyrosinase. Put plainly: Inhibitory effects on tyrosinase activity (L-tyrosine substrate, time course of absorbance at 475 nm, method of Patent Document 1). Format: biochemical. The conditions noted are these: Experiment 4, FIG. 3, aqueous solution of 1% sample, 0-15 min. On the procedure:
The experiment was carried out in the same manner as that described in Patent Document 1. An aqueous solution of 1% 3H2P, an aqueous solution of 1% coumalin (Tokyo Chemical Industry Co., Ltd.), an aqueous solution of 1% coumalic acid (Tokyo Chemical Industry Co., Ltd.), and an aqueous solution of 0.01% kojic acid were prepared. Subsequently, 1.45 ml of a substrate-sample mixture comprising an aqueous solution of L-tyrosine (0.3 mg/ml), a sample solution of 3H2P, etc., and McIlvaine buffer (pH 6.8) was introduced into a test tube, 0.05 ml of a tyrosinase solution (1 mg/ml) was added thereto, the resultant was mounted on a spectrophotometer capable of maintaining a constant temperature of 37° C., and the absorbance was measured at 475 nm with the elapse of time (once every minute between 0 min and 15 min).

In data set [3] the test system is B16 mouse melanoma 4A5 cells. Kind of data set: Viable cell count (protein amount, DC Protein Assay) in B16 mouse melanoma 4A5 cells. On the procedure:
as §1
as §1, with “5.0×10^4” for “5.0 x 10^4”

The test system of data set [4] is tyrosinase (Sigma). Put plainly: Inhibition rate of tyrosinase activity (L-DOPA substrate, absorbance 475 nm). Format: biochemical. How it is done:
In the experiment, 0.2 ml of an enzyme solution containing 72 units/ml tyrosinase (Sigma) was mixed with 1.0 ml of a substrate mixture (i.e., a 2:2:1 mixture of a 6 mM L-DOPA solution, the test composition with the adjusted concentration (hereafter referred to as the “sample”), and phosphate buffer), the absorbance was measured at 475 nm at 37° C. at 0 min and […], and the inhibition rate of tyrosinase activity was determined using the equation shown below.
Inhibition rate of tyrosinase activity (%)=(1−(the difference in the absorbance of the sample between […] and 3 min)/(the difference in the absorbance of the blank between 0 min and 3 min)×100
In the experiment, 0.2 ml of an enzyme solution containing 72 units/ml tyrosinase (Sigma) was mixed with 1.0 ml of a substrate mixture (i.e., a 2:2:1 mixture of a 6 mM L-DOPA solution, the sample with the adjusted concentration, and phosphate buffer (pH 6.8)), the absorbance was measured at 475 nm at 37° C. at 0 min and 3 min, and the inhibition rate of tyrosinase activity was determined using the equation shown below.
Inhibition rate of tyrosinase activity (%)=(1−(the difference in the absorbance of the sample between 0 min and 3 min)/(the difference in the absorbance of the blank between 0 min and 3 min)×100
In the experiment, 0.2 ml of an enzyme solution containing 72 units/ml tyrosinase (Sigma) was mixed with 1.0 ml of a substrate mixture (i.e., a 2:2:1 mixture of a 6 mM L-DOPA solution, the sample with the adjusted concentration, and phosphate buffer), the absorbance was measured at 475 nm at 37° C. at 0 min and 3 min, and the inhibition rate of tyrosinase activity was determined using the equation shown below.

Setting [5] is: Experiment 7, FIG. 6, 3H4P, 3H2P and kojic acid compared.
Where [6] appears, read: Experiment 3, 1 μg/ml, relative to control designated as 100.
[7] abbreviates: Experiment 3, 5 μg/ml, relative to control designated as 100.
[8] abbreviates: Experiment 3, 10 μg/ml, relative to control designated as 100.
Where [9] appears, read: Experiment 6, FIG. 5, kojic acid, 3H2P and 3H4P compared.

Take `O=c1occcc1O` [3H2P, 3-hydroxy-2-pyrone]: the “inhibitory effects on melanin production” value is “stronger than those of kojic acid and equivalent to those of arbutin” in data set [1] (Experiment 3, FIG. 2, compared with arbutin and kojic acid); “stronger inhibitory effects on melanin production than such γ-pyrone compounds” in data set [1] (setting [5]). In addition, the Melanin level in data set [1] (Experiment 3, 1 μg/ml) was 71.7; in data set [1] (Experiment 3, 5 μg/ml), 34.3; in data set [1] (Experiment 3, 10 μg/ml) it was 20.7; in data set [1] (Experiment 7, 1 μg/ml), 77.2; in data set [1] (Experiment 7, 5 μg/ml), 42.7; in data set [1] (Experiment 7, 10 μg/ml), 29.6. Moreover, the “concentration at which inhibitory effects on melanin production are exerted” value in data set [1] (Experiment 3, 1 ppm = 1 μg/ml, 0.0001%) is given as ≤ 1 ppm. In addition, the “inhibitory effects on tyrosinase activity” value was “significantly stronger than those of coumalin and coumalic acid” in data set [2]; “equivalent to those of ascorbic acid, although such effects are somewhat weaker than those of kojic acid” in data set [4] (Experiment 2, FIG. 1, compared with kojic acid and ascorbic acid); “apparently stronger than those of coumalin and coumalic acid” in data set [4] (Experiment 5, FIG. 4, final concentrations 0.3%, 0.1% and 0.033%); “equivalent to those of 3H4P” in data set [4] (setting [9]). The Cell count in data set [3] (setting [6]) was determined as 92.2; in data set [3] (setting [7]), 81.9; in data set [3] (setting [8]) it was 72.4; in data set [3] (Experiment 7, 1 μg/ml, relative to control designated as 100), 102.0; in data set [3] (Experiment 7, 5 μg/ml, relative to control designated as 100) it was 98.7; in data set [3] (Experiment 7, 10 μg/ml, relative to control designated as 100), 93.8.

As for `O=c1ccocc1O` [3H4P, 3-Hydroxy-4-pyrone], the “inhibitory effects on melanin production” value in data set [1] (setting [5]) is on record as “equivalent to those of kojic acid”. The Melanin level worked out at 88.8 in data set [1] (Experiment 7, 50 μg/ml) and 50.9 in data set [1] (Experiment 7, 100 μg/ml). Also, the Cell count in data set [3] (mouse, 5 days, 50 μg/ml) was 89.7; in data set [3] (mouse, 5 days, 100 μg/ml) it was 84.4.

Take `OC[C@H]1O[C@@H](Oc2ccc(O)cc2)[C@H](O)[C@@H](O)[C@@H]1O` [Arbutin, arbutin]: the Melanin level is 82.4 in data set [1] (Experiment 3, 1 μg/ml); 43.0 in data set [1] (Experiment 3, 5 μg/ml); 23.9 in data set [1] (Experiment 3, 10 μg/ml). Besides, the figures for the Cell count in data set [3] (setting [6]), in data set [3] (setting [7]) and in data set [3] (setting [8]) were 96.2, 91.7 and 86.0, respectively.

On to `O=c1cc(CO)occ1O` [Kojic acid, kojic acid], for which the Melanin level is on record as 76.5 in data set [1] (Experiment 3, 50 μg/ml); 65.7 in data set [1] (Experiment 3, 100 μg/ml); 85.6 in data set [1] (Experiment 7, 50 μg/ml); 65.3 in data set [1] (Experiment 7, 100 μg/ml). Moreover, the Cell count in data set [3] (Experiment 3, 50 μg/ml, relative to control designated as 100) turned out to be 80.2; in data set [3] (Experiment 3, 100 μg/ml, relative to control designated as 100), 74.1; in data set [3] (Experiment 7, 50 μg/ml, relative to control designated as 100), 80.2; in data set [3] (Experiment 7, 100 μg/ml, relative to control designated as 100) it was 74.1. Further, the “inhibitory effects on tyrosinase activity” value in data set [4] (setting [9]) is recorded as “strongest inhibitory effects on tyrosinase activity”.

As for `O=C(O)c1ccc(=O)oc1` [coumalic acid], the “inhibitory effects on tyrosinase activity” value in data set [2] was “strong inhibitory effects”.

As to `O=c1cccco1` [coumalin], in data set [2], the “inhibitory effects on tyrosinase activity” value is “insignificant levels of inhibitory effects”.
